{
  "source": "patent US20070059684A1",
  "about": "(UNIVERSITY OF MEDICINE AND DENTISTRY OF NEW JERSEY, published 2007)",
  "molecules": {"B1": {"name": "Upf1p (other, Saccharomyces cerevisiae, UniProt P30771 1-971, looked up)", "chain": "MVGSGSHTPYDISNSPSDVNVQPATQLNSTLVEDDDVDNQLFEEAQVTETGFRSPSASDNSCAYCGIDSAKCVIKCNSCKKWFCNTKNGTSSSHIVNHLVLSHHNVVSLHPDSDLGDTVLECYNCGRKNVFLLGFVSAKSEAVVVLLCRIPCAQTKNANWDTDQWQPLIEDRQLLSWVAEQPTEEEKLKARLITPSQISKLEAKWRSNKDATINDIDAPEEQEAIPPLLLRYQDAYEYQRSYGPLIKLEADYDKQLKESQALEHISVSWSLALNNRHLASFTLSTFESNELKVAIGDEMILWYSGMQHPDWEGRGYIVRLPNSFQDTFTLELKPSKTPPPTHLTTGFTAEFIWKGTSYDRMQDALKKFAIDKKSISGYLYYKILGHQVVDISFDVPLPKEFSIPNFAQLNSSQSNAVSHVLQRPLSLIQGPPGTGKTVTSATIVYHLSKIHKDRILVCAPSNVAVDHLAAKLRDLGLKVVRLTAKSREDVESSVSNLALHNLVGRGAKGELKNLLKLKDEVGELSASDTKRFVKLVRKTEAEILNKADVVCCTCVGAGDKRLDTKFRTVLIDESTQASEPECLIPIVKGAKQVILVGDHQQLGPVILERKAADAGLKQSLFERLISLGHVPIRLEVQYRMNPYLSEFPSNMFYEGSLQNGVTIEQRTVPNSKFPWPIRGIPMMFWANYGREEISANGTSFLNRIEAMNCERIITKLFRDGVKPEQIGVITPYEGQRAYILQYMQMNGSLDKDLYIKVEVASVDAFQGREKDYIILSCVRANEQQAIGFLRDPRRLNVGLTRAKYGLVILGNPRSLARNTLWNHLLIHFREKGCLVEGTLDNLQLCTVQLVRPQPRKTERPMNAQFNVESEMGDFPKFQDFDAQSMVSFSGQIGDFGNAFVDNTELSSYINNEYWNFENFKSAFSQKQNRNEIDDRNLYQEEASHLNSNFARELQREEQKHELSKDFSNLGI", "notes": "Tested in a two-hybrid system; also called Upf1 protein; product of the UPF1/IFS2/MOF4 gene"}, "B2": {"name": "Upf3p (other, Saccharomyces cerevisiae, UniProt P48412 1-387, looked up)", "chain": "MSNVAGELKNSEGKKKGRGNRYHNKNRGKSKNETVDPKKNENKVNNATNATHNNSKGRRNNKKRNREYYNYKRKARLGKSTENEGFKLVIRLLPPNLTADEFFAILRDNNNDDGDKQDIQGKLKYSDWCFFEGHYSSKVFKNSTYSRCNFLFDNLSDLEKCANFIKTCKFIDNKDNITIPDMKLSPYVKKFTQTSKKDAALVGTIEEDEIFKTFMNSMKQLNENDEYSFQDFSVLKSLEKEFSKSIELENKIAERTERVLTELVGTGDKVKNKNKKKKNKNAKKKFKEEEASAKIPKKKRNRGKKKRENREKSTISKTKNSNVVIIEEAGKEVLKQRKKKMLLQEKLKISNSSQPQSSSAQTQPSFQPKENLFVPRVKILHRDDTKK", "notes": "Tested in a two-hybrid system; also called product of the UPF3 gene"}},
  "key": {"nonsense mutations": {"tested_on": "nonsense mutations", "settings": "5 ug/ml, UPF1+ and UPF1− strains", "method": "Effects of drugs at a concentration of 5 μg/ml on nonsense supression in UPF+ and UPF− strains.\nUPF1+ and UPF1− strains were treated with 5 ug/ml sparsomycin, anisomycin, and paromomycin, and tested for nonsense suppression."}, "[1]": {"tested_on": "Saccharomyces cerevisiae strains (wildtype, mof4-1)", "type": "cell-based", "settings": "30° C. 4 days"}, "tcm1/mak8 mutants": {"tested_on": "tcm1/mak8 mutants", "settings": "cited from earlier work"}, "translation": {"tested_on": "translation", "type": "cell-based, Saccharomyces cerevisiae", "settings": "JD88 cells, indicated drug concentrations, 30° C. 5 hrs"}, "human host cells": {"tested_on": "human host cells", "type": "cell-based", "experimental": "Antiviral activities of these antibiotics were also tested against HIV."}, "[2]": {"tested_on": "L-A, M1 and L-BC dsRNA viruses", "type": "cell-based, Saccharomyces cerevisiae", "settings": "72 hrs at 3.8 μM anisomycin; not confirmed by northern blot", "description": "FIG. 12. (A) A single non-killer (K^−) colony from each drug concentration in the 72 hr data set was picked at random and total nucleic acids (TNA) were extracted [Dinman and Wickner, Virology 66:3669 (1992)]. Approximately equal amounts of TNA were separated through a 1% non-denaturing TAE-agarose gel and stained with ethidium bromide. The 4.6 kb L-A and L-BC, and the 1.8 kb M1 dsRNA bands are indicated. (B) RNA was denatured in the gel shown in (A), transferred to nitrocellulose and hybridized with [^32P]CTP labeled L-A and M1 (+) strand RNA probes as described in [Dinman and Wickner, Genetics 136:75 (1994)].\nTo determine whether loss of the M1 satellite virus was responsible for loss of the killer phenotype, a non-killer (K^−) colony from each drug concentration in the 72 hr data set was picked at random and total nucleic acids (TNA) were extracted [Park et al., Virology 216:451 (1996)]. Approximately equal amourits of TNA were separated through a 1% non-denaturing TAE-agarose gel and stained with ethidium bromide (FIG. 12A). As expected, the 1.8 kb M1 dsRNA band is not present in the K^− (drug treated) samples. Further, L-A appears to have also been cured by these drugs. […]\nRecently the cDNA sequence of L-BC (also known as La), a ubiquitous minor dsRNA virus of yeast has been determined [Park et al., supra]. […]"}, "[3]": {"tested_on": "killer phenotype (M1 satellite virus)", "settings": "3.8 μM anisomycin, after 48 or 72 hours, JD88 cells", "method": "JD88 cells were cultured in rich medium containing the indicated concentrations of either anisomycin (A) or sparsomycin (B). After 24, 48, 72, 96, or 120 hrs., aliquots of cells were removed, washed twice with sterile water, streaked onto rich medium, and grown to single colonies at 30° C. These were then replica plated onto indicator plates, and scored for their killer phenotypes. Loss of the killer phenotype was measured by dividing the number of non-killer (K^−) colonies by the total number of colonies. Each data set corresponds to >100 total colonies.\nAfter 24, 48, 72, 96, or 120 hrs., aliquots of cells were streaked for single colonies onto rich medium, which were then replica plated onto indicator to score their killer phenotypes."}, "HIV": {"tested_on": "HIV", "type": "cell-based, human"}, "Upf2p": {"molecular_target": "T1, Upf2p (Saccharomyces cerevisiae, UniProt P38798 1-1089, limits assumed)", "T1 construct": "Tested in a two-hybrid system; also called product of the UPF2/IFS1 gene", "T1 sequence (looked up)": "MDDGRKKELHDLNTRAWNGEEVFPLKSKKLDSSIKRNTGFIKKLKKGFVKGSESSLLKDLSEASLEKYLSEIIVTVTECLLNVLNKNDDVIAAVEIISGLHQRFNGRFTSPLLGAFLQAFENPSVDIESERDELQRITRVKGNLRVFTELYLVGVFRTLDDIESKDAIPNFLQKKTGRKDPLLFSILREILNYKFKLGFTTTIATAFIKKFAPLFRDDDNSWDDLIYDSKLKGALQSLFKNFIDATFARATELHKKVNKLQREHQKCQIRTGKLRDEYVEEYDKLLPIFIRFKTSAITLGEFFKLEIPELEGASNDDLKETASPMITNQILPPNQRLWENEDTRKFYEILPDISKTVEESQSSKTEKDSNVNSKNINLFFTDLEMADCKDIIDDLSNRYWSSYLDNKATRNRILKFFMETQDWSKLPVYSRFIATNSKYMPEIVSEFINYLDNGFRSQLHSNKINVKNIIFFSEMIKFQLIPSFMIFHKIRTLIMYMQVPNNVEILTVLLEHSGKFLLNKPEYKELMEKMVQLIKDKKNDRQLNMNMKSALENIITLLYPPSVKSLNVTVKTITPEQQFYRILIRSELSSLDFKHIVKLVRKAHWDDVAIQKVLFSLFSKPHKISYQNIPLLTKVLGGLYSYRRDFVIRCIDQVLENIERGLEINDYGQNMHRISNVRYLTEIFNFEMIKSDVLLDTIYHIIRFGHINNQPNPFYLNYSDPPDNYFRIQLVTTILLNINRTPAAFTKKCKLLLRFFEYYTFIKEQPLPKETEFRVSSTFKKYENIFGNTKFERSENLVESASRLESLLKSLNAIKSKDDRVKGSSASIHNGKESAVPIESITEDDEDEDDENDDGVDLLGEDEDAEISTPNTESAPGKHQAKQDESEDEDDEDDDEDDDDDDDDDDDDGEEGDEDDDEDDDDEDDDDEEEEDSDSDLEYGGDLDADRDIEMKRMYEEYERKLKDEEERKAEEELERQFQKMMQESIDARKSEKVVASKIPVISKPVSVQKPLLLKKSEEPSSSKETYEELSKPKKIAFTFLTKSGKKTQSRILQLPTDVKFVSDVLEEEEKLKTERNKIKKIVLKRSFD", "test": "two-hybrid system"}},
  "note": "Entries after “also recorded” stand apart in the source; their conditions may differ. Where two headings read alike, the source gives them in different places.",
  "data": [
    {"molecule": "NC[C@@H]1O[C@H](O[C@H]2[C@@H](O)[C@H](O[C@@H]3[C@@H](O)[C@H](N)C[C@H](N)[C@H]3O[C@H]3O[C@H](CO)[C@@H](O)[C@H](O)[C@H]3N)O[C@@H]2CO)[C@H](N)[C@@H](O)[C@@H]1O", "note": "[paromomycin]", "values": [
      {"measurement": "nonsense suppression", "setting": "nonsense mutations", "value": "able to suppress nonsense mutations"},
      {"measurement": "PAROMOMYCIN SENSITIVITY (diameter of the zone of growth inhibition)", "setting": "[1]; strain Wildtype (MOF+UPF+), disc 1.0 mg paromomycin, media lacking leucine", "value": 0.7, "unit": "cm"},
      {"measurement": "PAROMOMYCIN SENSITIVITY (diameter of the zone of growth inhibition)", "setting": "[1]; strain mof4-1 (UPF1::URA3) + pmof4XAB, disc 1.0 mg, media lacking uracil and leucine", "value": 1.6, "unit": "cm"},
      {"measurement": "PAROMOMYCIN SENSITIVITY (diameter of the zone of growth inhibition)", "setting": "[1]; strain mof4-1 (UPF1::URA3) + pmof4XAE, disc 1.0 mg, media lacking uracil and leucine", "value": 2.3, "unit": "cm"},
      {"measurement": "PAROMOMYCIN SENSITIVITY (diameter of the zone of growth inhibition)", "setting": "[1]; strain mof4-1 (UPF1::URA3) + vector, disc 1.0 mg, media lacking uracil and leucine", "value": 1.7, "unit": "cm"},
      {"measurement": "PAROMOMYCIN SENSITIVITY (diameter of the zone of growth inhibition)", "setting": "[1]; strain mof4-1 + pYCpUPF1, disc 1.0 mg, media lacking uracil and leucine", "value": 1.6, "unit": "cm"},
      {"measurement": "PAROMOMYCIN SENSITIVITY (diameter of the zone of growth inhibition)", "setting": "[1]; strain mof4-1 + vector, disc 1.0 mg, media lacking uracil and leucine", "value": 2.4, "unit": "cm"},
      {"measurement": "PAROMOMYCIN SENSITIVITY (diameter of the zone of growth inhibition)", "setting": "[1]; strain mof4-1, disc 1.0 mg paromomycin, media lacking leucine", "value": 2.0, "unit": "cm"}
    ]},
    {"molecule": "COc1ccc(C[C@H]2NC[C@H](O)[C@H]2OC(C)=O)cc1", "note": "[anisomycin]", "values": [
      {"measurement": "nonsense suppression", "setting": "nonsense mutations", "value": "able to suppress nonsense mutations"},
      {"measurement": "effectiveness in tcm1/mak8 mutants", "setting": "tcm1/mak8 mutants", "value": "resistant; also recorded: ineffective"},
      {"measurement": "overall translation (β-gal activities from pTI25) as percentage of the no drug controls", "setting": "translation", "value": "≥ 80", "unit": "%"},
      {"measurement": "minimum inhibitory concentration (MIC)", "setting": "human host cells", "value": "about 1.5 ug/ml"},
      {"measurement": "L-BC dsRNA band", "setting": "[2]", "value": "appears to missing"},
      {"measurement": "loss of the killer phenotype (non-killer colonies / total colony forming units)", "setting": "[3]", "value": "approximately 53%"},
      {"measurement": "titers of HIV", "setting": "HIV", "value": "decrease titers of HIV"},
      {"measurement": "HIV viral titers as % of the no drug controls", "setting": "HIV; anisomycin at concentrations 1500-fold lower than MIC, 4 days", "value": "approximately 30%"},
      {"measurement": "antiviral concentration relative to the MIC (fold lower)", "setting": "HIV; concentration giving approximately 30% HIV titer", "value": 1500}
    ]},
    {"molecule": "B1", "values": [
      {"measurement": "binding result", "setting": "Upf2p", "value": "binds"}
    ]},
    {"molecule": "B2", "values": [
      {"measurement": "binding result", "setting": "Upf2p", "value": "binds"}
    ]}
  ]
}
